From patent US20240108740A1, “THERAPEUTIC COMPOSITIONS INCLUDING SPN10 AND USES THEREOF” (Stealth BioTherapeutics Inc., priority 2022, published 2024)
Residues, ends and D or L forms follow the SMILES beside them.

System: Isolated guinea pig hearts
Experiment: Example 15: organ preservation in cardioplegic solution
Conditions: added to cardioplegic solution; 90 minutes ischemia, 60 minutes reperfusion
Description: Isolated guinea pig hearts will be perfused in a retrograde fashion with an oxygenated Krebs-Henseleit solution at 34° C. After 30 minutes of stabilization, the hearts will be perfused with a cardioplegic solution (CPS; St. Thomas) alone or in the presence of peptide conjugates (100 nM); aromatic-cationic peptides (an equivalent molar dose of aromatic-cationic peptide based on the concentration of the aromatic-cationic peptide administered in the peptide conjugate treatment group); SPN10(s) (an equivalent molar dose of SPN10 based on the concentration of SPN10 administered in the peptide conjugate treatment group); or SPN10(s) in combination with aromatic-cationic peptides (e.g., an equivalent molar dose of SPN10 based on the concentration of SPN10 administered in the peptide conjugate treatment group and an equivalent molar dose of aromatic-cationic peptide based on the concentration of aromatic-cationic peptide administered in the peptide conjugate treatment group) for 3 minutes. Global ischemia will then be induced by complete interruption of coronary flow and maintained for 90 minutes. Reperfusion will be performed for 60 minutes with oxygenated Krebs-Henseleit solution. Contractile force, heart rate, and coronary flow will be monitored continuously throughout the procedure.

In the case of `N=C(N)NCCC[C@H](NC(=O)[C@@H](N)Cc1c[nH]c2ccccc12)C(=O)N[C@@H](Cc1c[nH]c2ccccc12)C(=O)N[C@@H](CCCCN)C(N)=O` [SPN10, H-L-Trp-L-Arg-L-Trp-L-Lys-NH2] (H-WRWK-NH2), the “contractile function after prolonged ischemia” value is reported as “significantly enhance contractile function”.
